Test results taken from patent US5502061A, “Peptidyl substituted benzamides and naphthamies” (Eli Lilly and Company, priority 1994, dated 1996).

Target: T1, HIV-1 protease (Human immunodeficiency virus type 1 group M subtype B, UniProt P04585)
T1 construct: made in house; host or cells: E. coli K12 L507/pHP10D (NRRL B-18560)
Assay: Fluorescence HIV-1 Protease Inhibitor Assay
Type: biochemical
Settings: for Fluorescence Assay IC50: purified HIV-1 protease, biotin/FITC-labelled peptide substrate, Pandex read-out, all values normalized to the positive control (= 1.0)
Procedure: E. Fluorescence HIV-1 Protease Inhibitor Assay
The following buffers and solutions are used in the Fluorescence HIV-1 Protease Inhibitor Assay:
To each well of a round bottom, 96-well plate is added 20 μL of the Enzyme Solution followed by 10 μL of the compound to be evaluated in a 20% aqueous dimethylsulfoxide solution. Purified HIV-1 protease was obtained as described above. […] The solutions are then incubated for 16 hours at room temperature and then each well is diluted with 150 μL of MES-ALB buffer.
To each well of a second round bottom, 96-well Pandex plate is added 25 uL of the Avidin Coated Beads Solution. Then, to each well is added 25 μL of the diluted incubation solutions, prepared above. The solutions are mixed thoroughly and the plates are loaded into a Pandex® machine, washed, evacuated and read. Sample detection was performed by excitation at 485 nm, reading the resulting epifluorescence at 535 nm.

## CC(C)(C)NC(=O)c1ccccc1CC(O)C(Cc1ccccc1)NC(=O)C(Cc1c[nH]cn1)NC(=O)C(Cc1cccc2ccccc12)NC(=O)OC(C)(C)C (stereo not drawn) [Example 11C, 2R-(2R*,3S*,6S*,9S*)!-N-t-Butyl-2-2-hydroxy-3-phenylmethyl-4,7-diaza-5,8-dioxo-6-(imidazol-4-ylmethyl)-9-N(t-butoxycarbonyl)amino-10-naphth-1-yl!decyl benzamide]
  Fluorescence Assay IC50: 7.78 ng/mL

## CC(C)(C)NC(=O)c1ccccc1CC(O)C(Cc1ccccc1)NC(=O)C(CC(N)=O)NC(=O)C(NC(=O)OC(C)(C)C)c1ccccc1 (stereo not drawn) [Example 17, 2R-(2R*, 3S*, 6S*, 9R*)!-N-t-butyl-2-2-hydroxy-3-phenylmethyl-4,7-diaza 5,8-dioxo-6-(carbamoylmethyl)-9-N(t-butoxycarbonyl)amino-9-phenyl!nonyl benzamide]
Concentration giving 25% inhibition, the concentration of the compound was not increased above the stated concentration, normalized to positive control
  Fluorescence Assay IC25: 100 ng/mL

## CC(C)(C)NC(=O)c1ccccc1CC(O)C(Cc1ccccc1)NC(=O)C(CC(N)=O)NC(=O)C(NC(=O)OC(C)(C)C)c1ccccc1 (stereo not drawn) [Example 16, 2R-(2R*, 3S*, 6S*, 9S*)!-N-t-Butyl-2-2-hydroxy-3-phenylmethyl-4,7-diaza-5,8-dioxo-6-(carbamoylmethyl)-9-N(t-butoxycarbonyl)amino-9-phenyl!nonyl benzamide]
  Fluorescence Assay IC50: 106 ng/mL

## CC(C)(C)NC(=O)c1cccc(CC(O)C(Cc2ccccc2)NC(=O)C(CC(N)=O)NC(=O)C(Cc2c[nH]c3ccccc23)NC(=O)OC(C)(C)C)c1 (stereo not drawn) [Example 15, 2R-(2R*, 3S*, 6S*, 9R*)!-N-t-Butyl-3-2-hydroxy-3-phenylmethyl-4,7-diaza-5,8-dioxo-6-(carbamoylmethyl)-9-N(t-butoxycarbonyl)amino-10-indol-3-yl!decyl benzamide]
  Fluorescence Assay IC50: 1.05 ng/mL

## CC(C)C(NC(=O)C(N)Cc1cccc2ccccc12)C(=O)NC(Cc1ccccc1)C(O)Cc1ccccc1C(=O)NC(C)(C)C (stereo not drawn) [Example 3, 2R-(2R*, 3S*, 6S*, 9S*)!-N-t-Butyl-2-2-hydroxy-3-phenylmethyl-5,8-dioxo-6-(1-methylethyl)-9-amino-10-naphth-1-yl!decyl benzamide]
  Fluorescence Assay IC50: 0.48 ng/mL

## CC(C)(C)NC(=O)c1ccccc1CC(O)C(Cc1ccccc1)NC(=O)C(CC(N)=O)NC(=O)C(Cc1c[nH]c2ccccc12)NC(=O)OC(C)(C)C (stereo not drawn) [Example 14, 2R-(2R*, 3S*, 6S*, 9S*)!-N-t-Butyl-2-2-hydroxy-3-phenylmethyl-4,7-diaza-5,8-dioxo-6-(carbamoylmethyl)-9-N(t-butoxycarbonyl)amino-10-indol-3-yl!decyl benzamide]
  Fluorescence Assay IC50: 0.93 ng/mL

## CC(C)C(NC(=O)C(Cc1cccc2ccccc12)NC(=O)OC(C)(C)C)C(=O)NC(Cc1ccccc1)C(O)Cc1ccccc1C(=O)NC(C)(C)C (stereo not drawn) [Example 1C, 2R-(2R*, 3S*, 6S*, 9S*)!-N-t-Butyl-2-2-hydroxy-3-phenylmethyl-4,7-diaza-5,8-dioxo-6-(1-methylethyl)-9-N(t-butoxycarbonyl)amino-10-naphth-1-yl!decyl benzamide]
  Fluorescence Assay IC50: 1.44 ng/mL

## 2R- (2R*, 3S*, 6S*, 9R*)!-N-t-Butyl-2- 2-hydroxy-3-phenylmethyl-4,7-diaza -2,8-dioxo-6-(1-methylethyl)-9-amino-10-naphth-1-yl!benzamide [Example 4]
  Fluorescence Assay IC50: 2.48 ng/mL

## CC(C)(C)NC(=O)c1ccccc1CC(O)C(Cc1ccccc1)NC(=O)C(Cc1c[nH]cn1)NC(=O)C(Cc1cccc2ccccc12)NC(=O)OC(C)(C)C (stereo not drawn) [Example 12, 2R-(2R*,3S*,6S*,9R*)!-N-t-Butyl-2-2-hydroxy-3-phenylmethyl-4,7-diaza-5,8-dioxo-6-(imidazol-4-ylmethyl)-9-N(t-butoxycarbonyl)amino-10-naphth-1-yl!decyl benzamide]
  Fluorescence Assay IC50: 1.6 ng/mL

## CC(C)(C)NC(=O)c1ccccc1CC(O)C(Cc1ccccc1)NC(=O)C(CC(N)=O)NC(=O)C(Cc1cccc2ccccc12)NC(=O)OC(C)(C)C (stereo not drawn) [Example 5C, 2R-(2R*,3S*, 6S*,9R*)!-N-t-Butyl-2-2-hydroxy-3-phenylmethyl-4,7-diaza-5,8-dioxo-6-(carbamoylmethyl)-9-N(t-butoxycarbonyl))amino-10-naphth-1-yl!decyl benzamide]
  Fluorescence Assay IC50: 0.53 ng/mL

## 2R-(3R*,3S*,6S*,9R*)!-N-t-Butyl-2- 2-hydroxy-3-phenylmethyl-4,7-diaza -5,8,dioxo-6-(carbamoylmethyl)-9-amino-10-naphth-1-yl!decyl benzamide [Example 8]
  Fluorescence Assay IC50: 2.28 ng/mL

## CC(C)C(NC(=O)C(Cc1cccc2ccccc12)NC(=O)OC(C)(C)C)C(=O)NC(Cc1ccccc1)C(O)Cc1ccccc1C(=O)NC(C)(C)C (stereo not drawn) [Example 2, 2R-(2R*,3S*,6S*,9R*)!-N-t-Butyl-2-2-hydroxy-3-phenylmethyl-4,7-diaza-5,8-dioxo-6-(1-methylethyl)-9-N(t-butoxycarbonyl)amino-10-naphth-1-yl!decyl benzamide]
  Fluorescence Assay IC50: 3.13 ng/mL

## CC(C)(C)NC(=O)c1ccccc1CC(O)C(Cc1ccccc1)NC(=O)C(CC(N)=O)NC(=O)C(Cc1ccccc1)NC(=O)OC(C)(C)C (stereo not drawn) [Example 10, 2R-(2R*, 3S*, 6S*, 9R* )!-N-t-Butyl-2-2-hydroxy-3-phenylmethyl-4,7-diaza-5,8-dioxo-6-(carbamoylmethyl)-9-N(t-butoxycarbonyl)amino-10-phenyl!decyl benzamide]
  Fluorescence Assay IC50: 1.67 ng/mL

## CC(C)(C)NC(=O)c1ccccc1CC(O)C(Cc1ccccc1)NC(=O)C(CC(N)=O)NC(=O)C(Cc1cccc2ccccc12)NC(=O)OC(C)(C)C (stereo not drawn) [Example 6, 2R-(2R*,3S*,6S*,9S*)!-N-t-Butyl-2-2-hydroxy-3-phenylmethyl-4,7-diaza-5,8-dioxo-6-(carbamoylmethyl)-9-N(t-butoxycarbonyl)amino-10-naphth-1-yl!decyl benzamide]
  Fluorescence Assay IC50: 2.4 ng/mL

## CC(C)(C)NC(=O)c1ccccc1CC(O)C(Cc1ccccc1)NC(=O)C(CC(N)=O)NC(=O)C(Cc1cccc2ccccc12)NC(=O)OC(C)(C)C (stereo not drawn) [Example 13, 2R-(2R*,3S*, 6R*,9S*)!-N-t-Butyl-2-2-hydroxy-3-phenylmethyl-4,7-diaza-5,8-dioxo-6-(carbamoylmethyl)-9-N(t-butoxycarbonyl)amino-10-naphth-1-yl!decyl benzamide]
  Fluorescence Assay IC50: > 10000 ng/mL

## CC(C)(C)NC(=O)c1ccccc1CC(O)C(Cc1ccccc1)NC(=O)C(CC(N)=O)NC(=O)C(N)Cc1cccc2ccccc12 (stereo not drawn) [Example 7, 2R-(2R*, 3S*, 6S*, 9S*)!-N-t-Butyl-2-2-hydroxy-3-phenylmethyl-4,7-diaza-5,8-dioxo-6-(carbamoylmethyl)-9-amino-10-naphth-1-yl!decyl benzamide]
  Fluorescence Assay IC50: 0.95 ng/mL

## CC(C)(C)NC(=O)c1ccccc1CC(O)C(Cc1ccccc1)NC(=O)C(CC(N)=O)NC(=O)C(Cc1ccccc1)NC(=O)OC(C)(C)C (stereo not drawn) [Example 9, 2R-(2R*, 3S*, 6S*, 9S*)!-N-t-Butyl-2-2-hydroxy-3-phenylmethyl-4,7-diaza-5,8-dioxo-6-(carbamoylmethyl)-9-N(t-butoxycarbonyl)amino-10-phenyl!decyl benzamide]
  Fluorescence Assay IC50: 1.76 ng/mL

## CC(C)(C)NC(=O)c1ccccc1CC(O)C(Cc1ccccc1)NC(=O)C(N)CC(N)=O (stereo not drawn) [Example 5B, 2R-(2R*, 3S*, 6S*)!-N-t-Butyl-2-2-hydroxy-3-phenylmethyl-4-aza-5-oxo-6-amino-7-carbamoyl!heptyl benzamide]
Concentration giving 43% inhibition, the concentration of the compound was not increased above the stated concentration, normalized to positive control
  Fluorescence Assay IC43: 1000 ng/mL
